Test results reported in EP0528458A1, “Method for controlling dental tartar using phosphopeptides and compositions for use therein” (UNILEVER N.V., priority 1991, dated 1993).
Where two headings read alike, the source gives them in different places.

Assays:
[1] = system: Streptococcus sobrinus 6715-14; details: 1.5% pyrophosphate anion; versus deionized water control
Procedure: A Microbial Mineralization Assay was carried out. Standard glass rods (3mm x 50mm) were attached to a circular piece of rubber and attached to a vial cap. The surface of the rods was etched. The rods were placed in a growth medium containing sucrose and Streptococcus sobrinus 6715-14. The microbe was grown on the rods for 24 hours at 37°C. The rods were then placed into a fresh growth medium for another 24 hours at 37°C. The rods were then taken out and treated with the anti-tartar agent to be tested. Treatment with only deionized water was used as control. The rods were then placed in a calcifying solution made up of a calcium and phosphate at levels of 1.5 mM and 5.0 mM respectively, at pH 7.4, supplemented with human saliva (about 25%). Six hours later, the treatment with the anti-tartar agent was repeated, and glass rods were placed in a calcifying solution. The procedure was continued for the next three days.
The rods were then removed from the calcifying solution, rinsed with water and placed in 0.6 N HCl solution. The solution containing the rods was heated at 60°C for 2 hours to dissolve calcified salts. The resulting acidic solution was filtered over 0.8 µm nylon membrane. The level of mineral formation was assessed via calcium and phosphorus analysis. The results were calculated by comparing the % reduction of mineral formation to that of the control.

[2] = no Na CPP
Procedure: Comparative in vitro experiments were carried out using a Seeded Crystal Growth Inhibition Assay. This assay involved the treatment of synthetic hydroxyapatite with the anti-tartar agent to be tested. The hydroxyapatite, treated with the anti-tartar agent was incubated at 37°C in a calcifying solution made up of calcium and phosphate at 1.5 mM and 4.5 mM respectively, pH 7.4. The samples were filtered to remove any calcium phosphate crystals and the free calcium in the filtrate was measured using Atomic Absorption Spectroscopy. The percent inhibition was calculated as follows: [formula]
The % inhibition is a measure of the degree of inhibition of calcium phosphate precipitation by the anti-tartar agent. The anti-tartar agents tested were: 1) tetrasodium pyrophosphate, Na₄P₂O₇ and 2) combinations of Na₄P₂O₇ and sodium caseinphosphopeptide, Na CPP, prepared as described above, which is a mixture rich in phosphopeptides of SEQ ID NO:1 and SEQ ID NO:2.
Experiments were carried out using a Seeded Crystal Growth Inhibition Assay described in Example 1. % inhibition was measured for NaCPP/Zinc sulphate mixtures.

SMILES | % reduction of mineral formation [1] [%] | % Inhibition ([2]; Na4 P2 O7 0.1 mM) [%] | % Inhibition ([2]; Na4 P2 O7 0.15 mM) [%] | % Inhibition ([2]; Na4 P2 O7 0.2 mM) [%]
O=P(O)(O)OP(=O)(O)O [pyrophosphate anion] | 32 | – | – | –
O=P([O-])([O-])OP(=O)([O-])[O-].[Na+].[Na+].[Na+].[Na+] [Na4 P2 O7, tetrasodium pyrophosphate] | – | 14 | 24 | 54
